Data as given in patent US20250381168A1, “VLA4 INHIBITORS AND USES THEREOF” (Washington University, priority 2022, published 2025).
Read-outs that look alike come from different tables or passages of the source.

Columns and labels:
VLA-4 (a4b1) = VLA-4 (a4b1) (Homo sapiens (Human), UniProt P05556+P13612); assay: sVCAM flow cytometry cell-based assay (inhibition of soluble VCAM-1 binding to G2 ALL cells);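 also: compounds at 0.1 to 1000 nM preincubated 30 min with G2 ALL cells, then VCAM/Fc added for 30 min, bound VCAM-1 detected by PE secondary antibody, percent binding cells by flow cytometry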
[1] = test system: hematopoietic stem/progenitor cells (HSPCs); assay: HSPC mobilization into peripheral blood, colony forming unit (CFU) assay; as to HSPC mobilization, result in words: test concentration or dose not given here; as to No. CFU (×10^3)/mL ± SD, 6 hr: test concentration or dose not given here; conditions: mice; for No. CFU (×10^3)/mL ± SD, 1 hr: 1 hr post dose (TABLE 20); for No. CFU (×10^3)/mL ± SD, 8 hr: 8 hr post dose (TABLE 20)
[2] = as listed in TABLE 20, read-out: sVCAM IC50
[3] = inhibition of sVCAM-1 binding to human G2 ALL cells (TABLE 3), read-out: SVCAM-1, IC50
[4] = single dose, peripheral blood, 4 hr post dose (TABLE 20)
[5] = as listed in TABLE 6, read-out: sVCAM IC50
[6] = single s.c. injection, peripheral blood, 0.25 hr post dose (TABLE 6)
[7] = single s.c. injection, peripheral blood, 2 hr post dose (TABLE 6)
[8] = single s.c. injection, peripheral blood, 4 hr post dose (TABLE 6)
[9] = as listed in TABLE 5, read-out: sVCAM IC50
[10] = single s.c. injection, peripheral blood, 0.25 hr post dose (TABLE 5)
[11] = single s.c. injection, peripheral blood, 2 hr post dose (TABLE 5)
[12] = single s.c. injection, peripheral blood, 4 hr post dose (TABLE 5)

VLA-4 (a4b1), sequence (P13612 34-1032): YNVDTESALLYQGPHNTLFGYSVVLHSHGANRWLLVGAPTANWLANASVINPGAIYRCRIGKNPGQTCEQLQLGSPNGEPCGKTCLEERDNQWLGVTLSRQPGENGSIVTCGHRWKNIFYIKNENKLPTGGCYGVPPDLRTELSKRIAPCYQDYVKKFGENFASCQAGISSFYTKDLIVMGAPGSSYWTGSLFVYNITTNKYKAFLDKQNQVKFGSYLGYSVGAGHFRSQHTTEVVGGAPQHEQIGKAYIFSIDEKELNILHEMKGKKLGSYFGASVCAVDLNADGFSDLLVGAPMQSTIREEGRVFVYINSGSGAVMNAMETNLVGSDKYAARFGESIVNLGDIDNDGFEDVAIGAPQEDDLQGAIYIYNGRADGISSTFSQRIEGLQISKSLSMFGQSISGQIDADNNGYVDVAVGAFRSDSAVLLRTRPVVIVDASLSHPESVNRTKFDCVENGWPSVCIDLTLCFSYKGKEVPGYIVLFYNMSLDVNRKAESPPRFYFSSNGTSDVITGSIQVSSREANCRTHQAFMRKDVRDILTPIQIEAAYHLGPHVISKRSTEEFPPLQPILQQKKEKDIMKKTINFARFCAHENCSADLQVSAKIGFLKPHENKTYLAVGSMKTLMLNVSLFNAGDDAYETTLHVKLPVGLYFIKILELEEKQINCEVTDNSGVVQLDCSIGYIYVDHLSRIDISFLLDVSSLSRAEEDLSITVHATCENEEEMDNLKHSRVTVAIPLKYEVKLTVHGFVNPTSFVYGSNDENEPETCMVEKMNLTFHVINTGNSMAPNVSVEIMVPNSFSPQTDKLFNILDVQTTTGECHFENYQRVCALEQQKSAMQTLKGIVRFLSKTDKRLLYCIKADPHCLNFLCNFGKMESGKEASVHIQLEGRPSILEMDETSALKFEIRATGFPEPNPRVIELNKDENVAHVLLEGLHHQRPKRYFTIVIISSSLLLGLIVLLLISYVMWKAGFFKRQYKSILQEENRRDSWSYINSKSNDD
VLA-4 (a4b1), sequence (P05556 21-798): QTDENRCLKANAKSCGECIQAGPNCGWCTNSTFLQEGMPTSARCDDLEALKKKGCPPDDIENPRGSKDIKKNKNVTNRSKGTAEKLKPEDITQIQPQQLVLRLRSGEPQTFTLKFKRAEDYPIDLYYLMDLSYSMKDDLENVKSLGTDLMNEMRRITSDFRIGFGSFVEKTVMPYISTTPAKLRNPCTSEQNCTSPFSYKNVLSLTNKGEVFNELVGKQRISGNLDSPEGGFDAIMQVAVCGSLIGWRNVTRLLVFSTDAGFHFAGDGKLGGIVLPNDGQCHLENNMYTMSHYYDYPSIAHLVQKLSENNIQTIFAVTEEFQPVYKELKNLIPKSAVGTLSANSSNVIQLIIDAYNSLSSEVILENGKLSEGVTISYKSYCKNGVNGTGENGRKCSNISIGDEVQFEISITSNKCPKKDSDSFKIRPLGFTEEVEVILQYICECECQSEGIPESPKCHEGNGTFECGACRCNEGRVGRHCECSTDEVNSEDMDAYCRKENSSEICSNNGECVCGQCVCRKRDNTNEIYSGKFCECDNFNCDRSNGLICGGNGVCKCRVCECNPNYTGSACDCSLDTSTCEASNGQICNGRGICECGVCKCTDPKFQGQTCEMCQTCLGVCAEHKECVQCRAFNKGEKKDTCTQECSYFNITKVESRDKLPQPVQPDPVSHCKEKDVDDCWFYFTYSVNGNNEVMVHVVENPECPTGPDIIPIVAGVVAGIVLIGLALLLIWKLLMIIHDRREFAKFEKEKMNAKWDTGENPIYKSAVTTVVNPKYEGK

Cc1cccc(Cl)c1C(=O)N[C@@H](Cc1ccc(NC(=O)c2c(Cl)cccc2Cl)cc1)C(=O)O [RO0270608]
IC50 (VLA-4 (a4b1); [2]): 98.7 nM | IC50 (VLA-4 (a4b1); [3]): 98.7 nM | HSPC mobilization, result in words ([1]; single dose): lack of any appreciable HSC mobilization | No. CFU (×10^3)/mL ± SD, 1 hr ([1]; single dose, peripheral blood): 0.64 ± 0.41 (×10^3)/mL | No. CFU (×10^3)/mL ± SD, 4 hr [1, 4]: 0.19 ± 0.06 (×10^3)/mL | No. CFU (×10^3)/mL ± SD, 8 hr ([1]; single dose, peripheral blood): 0.11 ± 0.05 (×10^3)/mL

COc1cccc(OC)c1-c1ccc(C[C@H](NC(=O)c2c(Cl)cccc2Cl)C(=O)O)cc1 [TR-14035]
IC50 (VLA-4 (a4b1); [2]): 247 nM | IC50 (VLA-4 (a4b1); [3]): 247 nM | No. CFU (×10^3)/mL ± SD, 1 hr ([1]; single dose, peripheral blood): 0.54 ± 0.15 (×10^3)/mL | No. CFU (×10^3)/mL ± SD, 4 hr [1, 4]: 0.18 ± 0.13 (×10^3)/mL | No. CFU (×10^3)/mL ± SD, 8 hr ([1]; single dose, peripheral blood): 0.10 ± 0.05 (×10^3)/mL

COc1cccc(OC)c1-c1ccc(C[C@H](NC(=O)[C@]2(C)CCCN2S(=O)(=O)c2cc(Cl)cc(Cl)c2)C(=O)O)cc1 [Example C5]
IC50 (VLA-4 (a4b1); [5]): 3.59 nM | IC50 (VLA-4 (a4b1); [3]): 3.59 nM | No. CFU (×10^3)/mL ± SD, 0.25 hr [1, 6]: 2.78 ± 0.48 (×10^3)/mL | No. CFU (×10^3)/mL ± SD, 2 hr [1, 7]: 1.38 ± 0.53 (×10^3)/mL | No. CFU (×10^3)/mL ± SD, 4 hr [1, 8]: 0.31 ± 0.09 (×10^3)/mL

CCOCc1cc(OC)c(-c2ccc(C[C@H](NC(=O)c3c(Cl)cc(C(=O)O)cc3Cl)C(=O)O)cc2)c(OC)c1 [Example C3]
IC50 (VLA-4 (a4b1); [9]): 1.35 nM | IC50 (VLA-4 (a4b1); [3]): 1.35 nM | No. CFU (×10^3)/mL ± SD, 0.25 hr [1, 10]: 3.69 ± 0.52 (×10^3)/mL | No. CFU (×10^3)/mL ± SD, 2 hr [1, 11]: 1.58 ± 0.74 (×10^3)/mL | No. CFU (×10^3)/mL ± SD, 4 hr [1, 12]: 0.30 ± 0.11 (×10^3)/mL

CCOCc1cc(OC)c(-c2ccc(C[C@H](NC(=O)[C@@H]3CCCN3S(=O)(=O)c3cc(Cl)cc(Cl)c3)C(=O)O)cc2)c(OC)c1 [Example C6]
IC50 (VLA-4 (a4b1); [5]): 0.445 nM | IC50 (VLA-4 (a4b1); [3]): 0.445 nM | No. CFU (×10^3)/mL ± SD, 0.25 hr [1, 6]: 2.58 ± 0.65 (×10^3)/mL | No. CFU (×10^3)/mL ± SD, 2 hr [1, 7]: 2.12 ± 0.70 (×10^3)/mL | No. CFU (×10^3)/mL ± SD, 4 hr [1, 8]: 0.46 ± 0.20 (×10^3)/mL

COCCOCCOCCOCc1cc(OC)c(-c2ccc(C[C@H](NC(=O)c3c(Cl)cc(C(=O)O)cc3Cl)C(=O)O)cc2)c(OC)c1 [Example C4]
IC50 (VLA-4 (a4b1); [9]): 1.69 nM | IC50 (VLA-4 (a4b1); as listed in TABLE 17, read-out: sVCAM IC50): 1.69 nM | IC50 (VLA-4 (a4b1); [3]): 1.69 nM | time to which HSPC mobilization is extended after a single dose [1]: ≤ 2 h | No. CFU (×10^3)/mL ± SD, 2 hr ([1]; alone or in combination with Plerixafor and tGroβ, peripheral blood, 2 hr (TABLE 17)): 2.91 ± 0.83 (×10^3)/mL | No. CFU (×10^3)/mL ± SD, 4 hr ([1]; alone or in combination with Plerixafor and tGroβ, peripheral blood, 4 hr (TABLE 17)): 0.53 ± 0.16 (×10^3)/mL | No. CFU (×10^3)/mL ± SD, 6 hr ([1]; alone or in combination with Plerixafor and tGroβ, peripheral blood, 6 hr (TABLE 17)): 0.28 ± 0.09 (×10^3)/mL | No. CFU (×10^3)/mL ± SD, 0.25 hr [1, 10]: 4.73 ± 1.31 (×10^3)/mL | No. CFU (×10^3)/mL ± SD, 2 hr [1, 11]: 1.47 ± 0.51 (×10^3)/mL | No. CFU (×10^3)/mL ± SD, 4 hr [1, 12]: 0.49 ± 0.12 (×10^3)/mL

COCCOCCOCCOCCOCCOCCOCCOCCSCc1cc(OC)c(-c2ccc(C[C@H](NC(=O)[C@@H]3CCCN3S(=O)(=O)c3cc(Cl)cc(Cl)c3)C(=O)O)cc2)c(OC)c1 [Example C16]
IC50 (VLA-4 (a4b1); as listed in TABLE 11, read-out: sVCAM IC50): 0.155 nM | IC50 (VLA-4 (a4b1); [3]): 0.155 nM | No. CFU (x10^3)/mL ± SD, 2 hr ([1]; single dose, peripheral blood, 2 hr post dose (TABLE 11)): 2.34 ± 0.55 (x10^3)/mL | No. CFU (x10^3)/mL ± SD, 4 hr ([1]; single dose, peripheral blood, 4 hr post dose (TABLE 11)): 1.14 ± 0.86 (x10^3)/mL | No. CFU (x10^3)/mL ± SD, 6 hr ([1]; single dose, peripheral blood, 6 hr post dose (TABLE 11)): 0.38 ± 0.24 (x10^3)/mL | No. CFU (x10^3)/mL ± SD, 24 hr ([1]; single dose, peripheral blood, 24 hr post dose (TABLE 11)): 0.14 ± 0.06 (x10^3)/mL
